Results published in publication PMC10041525, “New Dual Inhibitors of Bacterial Topoisomerases with Broad-Spectrum Antibacterial Activity and In Vivo Efficacy against Vancomycin-Intermediate Staphylococcus aureus” (Journal of Medicinal Chemistry, 2023).
Like-named read-outs stand apart in the source and are kept apart here.

Experiments:
S. pneumoniae ATCC 49619 [1] = system: S. pneumoniae ATCC 49619; design: method as in earlier work; details: QC range for S. pneumoniae ATCC 49619, ref CLSI; cited from earlier work
E. faecalis ATCC 29212 [2] = system: E. faecalis ATCC 29212; design: method as in earlier work; details: QC range for E. faecalis ATCC 29212, ref CLSI; cited from earlier work
P. aeruginosa ATCC 27853 [3] = system: P. aeruginosa ATCC 27853; design: method as in earlier work; details: QC range for P. aeruginosa ATCC 27853, ref CLSI; cited from earlier work
E. faecium (n = 13) = test: MIC broth microdilution at IHMA Europe; format: cell-based; details: Enterococcus faecium, read-out: MIC
A. baumannii ATCC 17978 = test: IHMA QC MIC; format: cell-based; details: Acinetobacter baumannii, ATCC17978, read-out: MIC (QC, repeated tests)
Procedure: (§1) The panel of Hungarian clinical isolates and controls measured following the same method as detailed above, and albeit measurements were carried out in 384-well microtiter plates (Corning Inc.).

E. coli ATCC 35218 = test: IHMA QC MIC; format: cell-based; details: Escherichia coli, ATCC35218, read-out: MIC (QC, repeated tests)
Procedure: as §1

H. influenzae ATCC 49766 = test: IHMA QC MIC; format: cell-based
Excerpt: (§2) Supplement jm2c01905_si_004.xlsx, sheet "QC" | column: MIC [µg/mL]

S. pneumoniae ATCC 49619 [4] = test: IHMA QC MIC; format: cell-based
Excerpt: as §2

E. faecalis ATCC 29212 [5] = test: IHMA QC MIC; format: cell-based
Excerpt: as §2

H. influenzae ATCC 49247 = test: IHMA QC MIC; format: cell-based; details: Haemophilus influenzae
Excerpt: as §2

S. pneumoniae (n = 12) = test: MIC broth microdilution at IHMA Europe; format: cell-based; details: for MIC: Streptococcus pneumoniae, read-out: MIC
P. aeruginosa ATCC 27853 [6] = test: IHMA QC MIC; format: cell-based
E. coli ATCC 25922 [7] = test: IHMA QC MIC; format: cell-based
E. coli ATCC 25922 [8] = system: E. coli ATCC 25922; design: method as in earlier work; details: QC range for E. coli ATCC 25922, ref CLSI; cited from earlier work
[9] = system: Haemophilus influenzae (n = 14); test: MIC broth microdilution at IHMA Europe; format: cell-based, H. influenzae; details: Haemophilus influenzae, read-out: MIC

For `C[C@H]1COc2c(N3CCN(C)CC3)c(F)cc3c(=O)c(C(=O)O)cn1c23.C[C@H]1COc2c(N3CCN(C)CC3)c(F)cc3c(=O)c(C(=O)O)cn1c23.O` [Levofloxacin, levofloxacin], the “MIC, CLSI Range” value (S. pneumoniae ATCC 49619 [1]) is given as 0,5 - 2 µg/mL, the “MIC, CLSI Range” value (E. faecalis ATCC 29212 [2]) is given as 0,25 - 2 µg/mL and the “MIC, CLSI Range” value (P. aeruginosa ATCC 27853 [3]) is given as 0,5 - 4 µg/mL. The MIC (E. faecium (n = 13); E. faecium IHMA N° 1764866) was > 32 mg/L, the MIC (E. faecium (n = 13); E. faecium IHMA N° 1765436) was > 32 mg/L and the MIC (E. faecium (n = 13); E. faecium IHMA N° 1765746) was > 32 mg/L. For the same molecule, the MIC (E. faecium (n = 13); E. faecium IHMA N° 1893573) was > 32 mg/L, the MIC (E. faecium (n = 13); E. faecium IHMA N° 1893846) was > 32 mg/L and the MIC (E. faecium (n = 13); E. faecium IHMA N° 1893942) was > 32 mg/L. For the same molecule, the MIC (E. faecium (n = 13); E. faecium IHMA N° 1894055) was > 32 mg/L, the MIC (E. faecium (n = 13); E. faecium IHMA N° 1897027) was > 32 mg/L and the MIC (E. faecium (n = 13); E. faecium IHMA N° 1897101) was > 32 mg/L. For the same molecule, the MIC (E. faecium (n = 13); E. faecium IHMA N° 1904592) was 32 mg/L, the MIC (E. faecium (n = 13); E. faecium IHMA N° 2075051) was > 32 mg/L and the MIC (E. faecium (n = 13); E. faecium IHMA N° 2077718) was > 32 mg/L. The MIC (E. faecium (n = 13); E. faecium IHMA N° 2083787) was 32 mg/L, the MIC (A. baumannii ATCC 17978) was ≤ 0.25 mg/L and the MIC (E. coli ATCC 35218) was ≤ 0.25 mg/L. It also gave an MIC (H. influenzae ATCC 49766; Haemophilus influenzae, ATCC49766) of 0.015 mg/L, an MIC (H. influenzae ATCC 49766; QC strain H. influenzae ATCC 49766, test date 2021-11-26) of 0.015 mg/L and an MIC (S. pneumoniae ATCC 49619 [4]; QC strain S. pneumoniae ATCC 49619, test date 2021-11-26) of 0.5 mg/L. The MIC (S. pneumoniae ATCC 49619 [4]; Streptococcus pneumoniae, ATCC49619) was 0.5 mg/L, the MIC (E. faecalis ATCC 29212 [5]; Enterococcus faecalis, ATCC29212) was 1 mg/L and the MIC (E. faecalis ATCC 29212 [5]; QC strain E. faecalis ATCC 29212, test date 2021-11-26) was 1 mg/L. The MIC (H. influenzae ATCC 49247; ATCC49247, QC strain H. influenzae ATCC 49247, test date 2021-11-11) was 0.015 mg/L, the MIC (H. influenzae ATCC 49247; ATCC49247, QC strain H. influenzae ATCC 49247, test date 2021-11-26) was 0.015 mg/L and the “No. of isolates at MIC” value (S. pneumoniae (n = 12); MIC 0.5 µg/mL) was 5. For the same molecule, the MIC (S. pneumoniae (n = 12); S. pneumoniae IHMA N° 1775387) was 1 mg/L, the MIC (S. pneumoniae (n = 12); S. pneumoniae IHMA N° 1776057) was 0.5 mg/L and the MIC (S. pneumoniae (n = 12); S. pneumoniae IHMA N° 1785617) was 0.5 mg/L. It also gave an MIC (S. pneumoniae (n = 12); S. pneumoniae IHMA N° 1800765) of 1 mg/L, an MIC (S. pneumoniae (n = 12); S. pneumoniae IHMA N° 1811259) of 0.5 mg/L and an MIC (S. pneumoniae (n = 12); S. pneumoniae IHMA N° 1831562) of 1 mg/L. For the same molecule, the MIC (S. pneumoniae (n = 12); S. pneumoniae IHMA N° 1902609) was 1 mg/L, the MIC (S. pneumoniae (n = 12); S. pneumoniae IHMA N° 1979675) was 0.5 mg/L and the MIC (S. pneumoniae (n = 12); S. pneumoniae IHMA N° 1991963) was > 32 mg/L. The MIC (S. pneumoniae (n = 12); S. pneumoniae IHMA N° 2057487) was 1 mg/L, the MIC (S. pneumoniae (n = 12); S. pneumoniae IHMA N° 2073087) was 1 mg/L and the MIC (S. pneumoniae (n = 12); S. pneumoniae IHMA N° 2117109) was 0.5 mg/L. It also gave an MIC (P. aeruginosa ATCC 27853 [6]; Pseudomonas aeruginosa, ATCC27853, QC strain P. aeruginosa ATCC 27853, test date 2021-11-11) of 2 mg/L, an MIC (P. aeruginosa ATCC 27853 [6]; Pseudomonas aeruginosa, ATCC27853, QC strain P. aeruginosa ATCC 27853, test date 2021-11-26) of 1 mg/L and an MIC (P. aeruginosa ATCC 27853 [6]; QC strain P. aeruginosa ATCC 27853, test date 2021-11-11) of 1 mg/L. For the same molecule, the MIC (E. coli ATCC 25922 [7]; Escherichia coli, ATCC25922) was 0.015 mg/L, the MIC (E. coli ATCC 25922 [7]; Escherichia coli, ATCC25922, read-out: MIC (QC, repeated tests)) was ≤ 0.25 mg/L and the MIC (E. coli ATCC 25922 [7]; QC strain E. coli ATCC 25922, test date 2021-11-26) was 0.015 mg/L. The “MIC, CLSI Range” value (E. coli ATCC 25922 [8]) was 0,008 - 0,06 µg/mL, the MIC ([9]; H. influenzae IHMA N° 1227715) was 0.015 mg/L and the MIC ([9]; H. influenzae IHMA N° 1241620) was ≤ 0.004 mg/L. The MIC ([9]; H. influenzae IHMA N° 1244149) was 0.015 mg/L, the MIC ([9]; H. influenzae IHMA N° 1249803) was 0.015 mg/L and the MIC ([9]; H. influenzae IHMA N° 1254355) was 0.12 mg/L. It also gave an MIC ([9]; H. influenzae IHMA N° 1258580) of 0.015 mg/L, an MIC ([9]; H. influenzae IHMA N° 1262734) of 0.015 mg/L and an MIC ([9]; H. influenzae IHMA N° 1272723) of 0.015 mg/L. For the same molecule, the MIC ([9]; H. influenzae IHMA N° 1286846) was 0.015 mg/L, the MIC ([9]; H. influenzae IHMA N° 1337530) was 0.015 mg/L and the MIC ([9]; H. influenzae IHMA N° 1440085) was 0.015 mg/L. For the same molecule, the MIC ([9]; H. influenzae IHMA N° 1479509) was 0.0015 mg/L, the MIC ([9]; H. influenzae IHMA N° 1952952) was 0.015 mg/L and the MIC ([9]; H. influenzae IHMA N° 2047461) was 0.008 mg/L.
